In PubChem BioAssay (NCI) one finds GI50 and TGI data, which are given here for twelve compounds.

Some test systems named below: NCI-H226 lung; HCT-15 colon; CCRF-CEM leukemia; SK-MEL-2 melanoma; TK-10 renal; IGROV1 ovarian; UACC-257 melanoma; M14 melanoma; RXF 393 renal; HCC-2998 colon.
Holding throughout (assay): NCI tumour cell line growth inhibition, 48 h

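Grown in 96-well plates, cells were treated for 48 hours with each compound at five concentrations. Insufficient inhibition: endpoint recorded as highest concentration tested. GI50 marks 50% less growth. Definition used: TGI = concentration required for complete inhibition of growth.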 Some results are limits rather than exact numbers.

As to `O=C(NNc1ccc(F)cc1)C1CCC(CNS(=O)(=O)c2ccc(Cl)c(Cl)c2)CC1` (stereo not given), the GI50 in the assay on NCI-H226 lung is 15.6 µM; in the assay on HCT-15 colon it was 7.63 µM; with CCRF-CEM leukemia it was 16.1 µM; in the assay with SK-MEL-2 melanoma it was more than 50 µM; with TK-10 renal, 1.74 µM; with IGROV1 ovarian, 6.79 µM. Besides, the GI50 is 7.91 µM in the assay on UACC-257 melanoma and 7.49 µM with M14 melanoma. Moreover, the TGI in the assay with NCI-H226 lung was more than 50 µM; with HCT-15 colon it was more than 50 µM; with CCRF-CEM leukemia it was more than 50 µM; with SK-MEL-2 melanoma, more than 50 µM; in the assay on TK-10 renal it was 16.4 µM; with IGROV1 ovarian, more than 50 µM. The TGI is 28.5 µM with UACC-257 melanoma and more than 50 µM in the assay with M14 melanoma.
With `CC(=O)[CH-]C(=O)c1ccccc1.CC(=O)[CH-]C(=O)c1ccccc1.CC1(C)OCC(C2OC3OC(C)(C)OC3C2[O-])O1.CC1(C)OCC(C2OC3OC(C)(C)OC3C2[O-])O1.[Ti+4]` (stereo not given), the GI50 with HCT-15 colon is 15.4 µM; with RXF 393 renal, 12.5 µM; in the assay on CCRF-CEM leukemia, 3.49 µM; in the assay on SK-MEL-2 melanoma it was 7.49 µM; in the assay on TK-10 renal it was 34.1 µM; in the assay on IGROV1 ovarian it was 21.6 µM. Also, the GI50 with M14 melanoma is 16.1 µM. Moreover, the TGI in the assay on HCT-15 colon was 46.5 µM; with RXF 393 renal, 25.3 µM; in the assay with CCRF-CEM leukemia it was 39.8 µM; in the assay with SK-MEL-2 melanoma, 25.5 µM; in the assay on TK-10 renal it was more than 100 µM; in the assay with IGROV1 ovarian it was 48.8 µM. Besides, the TGI in the assay on M14 melanoma worked out at 37.6 µM.
Consider `O=S1(=O)NC2CCC3NS(=O)(=O)NC4CCC(N1)N4S(=O)(=O)N23` (stereo not given), for which the TGI in the assay on NCI-H226 lung, with HCC-2998 colon, in the assay on HCT-15 colon, in the assay with RXF 393 renal, in the assay on SK-MEL-2 melanoma and in the assay with TK-10 renal was more than 100 µM each time. For the same compound, the TGI with IGROV1 ovarian, with UACC-257 melanoma and in the assay with M14 melanoma was more than 100 µM each time.
Turning to `Cn1c2ccccc2c(=O)c2c(O)cc3c(c21)CC(C1(C)CO1)O3` (stereo not given), the TGI in the assay on NCI-H226 lung is 32 µM; in the assay on HCC-2998 colon, 5.4 µM; in the assay on HCT-15 colon, 30.6 µM; in the assay with RXF 393 renal, 2.85 µM; in the assay with SK-MEL-2 melanoma, 2.32 µM; with TK-10 renal, 42 µM. Further, the figures for the TGI in the assay on IGROV1 ovarian, in the assay with UACC-257 melanoma and in the assay with M14 melanoma were 26.9 µM, 13.1 µM and 2.93 µM, respectively.
`CN(C)CCC=C1c2ccccc2C(C)(C)c2ccccc21`: the GI50 with HCC-2998 colon was 4.25 µM; in the assay with HCT-15 colon, 12.3 µM; with CCRF-CEM leukemia, 9.84 µM; in the assay with SK-MEL-2 melanoma, 6.26 µM; with TK-10 renal, 18.4 µM; in the assay with IGROV1 ovarian it was 15.9 µM. Also, the figures for the GI50 with UACC-257 melanoma and with M14 melanoma were 2.42 µM and 2.94 µM, respectively. Further, the TGI turned out to be 15 µM in the assay on HCC-2998 colon; 27.5 µM in the assay on HCT-15 colon; 28.4 µM with CCRF-CEM leukemia; 22.1 µM in the assay with SK-MEL-2 melanoma; 37 µM in the assay on TK-10 renal; 31.7 µM with IGROV1 ovarian. Also, the figures for the TGI with UACC-257 melanoma and in the assay with M14 melanoma were 6.34 µM and 9.78 µM, respectively.
Regarding `Cc1cc(=O)n2c3c(c4c(cc13)c(CO)cc(=O)n4C)OC2`, the TGI was 25.8 µM in the assay with NCI-H226 lung; 44.8 µM with HCC-2998 colon; 56.8 µM with CCRF-CEM leukemia; 25.1 µM in the assay on SK-MEL-2 melanoma; 62.4 µM in the assay on TK-10 renal; more than 100 µM with IGROV1 ovarian. Further, the TGI in the assay on UACC-257 melanoma and with M14 melanoma was more than 100 µM each time.
On to `Cn1cc(-c2csc(-c3cn(CCCCN4CCCCC4)c4ccc(F)cc34)n2)c2cccnc21`, for which the GI50 in the assay on NCI-H226 lung is 1.68 µM; with HCC-2998 colon, 1.59 µM; in the assay with HCT-15 colon, 1.7 µM; in the assay on RXF 393 renal, 1.52 µM; in the assay on SK-MEL-2 melanoma it was 2.3 µM; in the assay on TK-10 renal it was 1.58 µM. In addition, the GI50 with UACC-257 melanoma is 1.7 µM. The TGI in the assay on NCI-H226 lung stood at 3.38 µM; in the assay with HCC-2998 colon, 3.08 µM; in the assay on HCT-15 colon, 3.06 µM; with RXF 393 renal it was 3.04 µM; in the assay with SK-MEL-2 melanoma, 5.98 µM; in the assay on TK-10 renal, 2.92 µM. Besides, in the assay with UACC-257 melanoma, the TGI amounted to 3.25 µM.
Regarding `O=C(N/C(=C\c1ccc(/C=C(\NC(=O)c2ccccc2)c2nc3cc(Cl)ccc3[nH]2)cc1)c1nc2cc(Cl)ccc2[nH]1)c1ccccc1`, the TGI with NCI-H226 lung is more than 100 µM; in the assay with HCT-15 colon, 76.1 µM; in the assay with RXF 393 renal, 85.3 µM; in the assay on CCRF-CEM leukemia it was more than 100 µM; with SK-MEL-2 melanoma, 99.6 µM; in the assay with TK-10 renal, 79 µM. The TGI in the assay on IGROV1 ovarian, in the assay with UACC-257 melanoma and in the assay with M14 melanoma was more than 100 µM in each case.
Turning to `NCCCCCCCCCCCn1c2c(c3ccccc3c1=O)C(=O)c1ccccc1-2`, the GI50 was 25.2 µM with NCI-H226 lung; 2.76 µM with HCC-2998 colon; 5.58 µM with HCT-15 colon; 24.3 µM in the assay on RXF 393 renal; 3.14 µM in the assay with TK-10 renal; 27.7 µM with UACC-257 melanoma. Further, the GI50 with M14 melanoma is 5.92 µM. Also, the TGI in the assay with NCI-H226 lung was found to be 54.3 µM; in the assay with HCC-2998 colon, 9.72 µM; in the assay with HCT-15 colon it was 19.4 µM; in the assay with RXF 393 renal it was 82.3 µM; with TK-10 renal it was 8.97 µM; in the assay with UACC-257 melanoma, 63.7 µM. The compound also registered a TGI in the assay with M14 melanoma of 25.7 µM.
Regarding `Cn1c(=O)c2ccc(-c3ccc(Br)cc3)nc2n(C)c1=O`, the TGI in the assay with NCI-H226 lung, in the assay with HCC-2998 colon, in the assay with HCT-15 colon, with CCRF-CEM leukemia, with SK-MEL-2 melanoma and in the assay with TK-10 renal was more than 100 µM throughout. Also, the TGI in the assay on IGROV1 ovarian, in the assay on UACC-257 melanoma and with M14 melanoma was more than 100 µM each time.
Regarding `COC(=O)NN1C(C)=C(C(=O)OC)C2(C#N)C(C(=O)OC)=C(C)N(NC(=O)OC)C12N` (stereo not given), the TGI in the assay on NCI-H226 lung, with HCC-2998 colon, in the assay with HCT-15 colon, in the assay with CCRF-CEM leukemia, in the assay on SK-MEL-2 melanoma and in the assay with TK-10 renal was more than 100 µM throughout. Besides, the TGI in the assay on IGROV1 ovarian, in the assay with UACC-257 melanoma and with M14 melanoma was more than 100 µM throughout.
For `Cc1cc(Cl)ccc1NC(=O)CCCC(=O)C1CCC/C1=N\NC(=O)CC#N` (stereo not given), the TGI in the assay on NCI-H226 lung, with HCT-15 colon, in the assay with CCRF-CEM leukemia, with SK-MEL-2 melanoma, in the assay with TK-10 renal and in the assay on IGROV1 ovarian was more than 100 µM each time. The TGI in the assay on UACC-257 melanoma and with M14 melanoma was more than 100 µM each time.
